Measured values: BindingDB's records for doi:10.1021/bi9016928 (Uppsala University, 2009)
Starred links: 1 amine or outer side, 2 acyl side, 3 side chain; linkers in the order of their positions; H or OH if unused. Non-standard residues stand in square brackets, D forms with d. Residues, ends and D or L forms follow the SMILES beside them. ξ: configuration not given here. Dip = N[C@H](C(=O)O)C(c1ccccc1)c1ccccc1; 2Nal = N[C@@H](Cc1ccc2ccccc2c1)C(=O)O; Cha = N[C@@H](CC1CCCCC1)C(=O)O; Ile(3ξ) = CCC(C)[C@H](N)C(=O)O; Chg = N[C@H](C(=O)O)C1CCCCC1; Suc = O=C(CCC(=O)[*:2])[*:1]

What follows are compounds tested against T1, Genome polyprotein (Hepacivirus hominis, UniProt Q04045) (assay: Competitive Inhibition Assay).
T1 sequence (Q04045 whole entry): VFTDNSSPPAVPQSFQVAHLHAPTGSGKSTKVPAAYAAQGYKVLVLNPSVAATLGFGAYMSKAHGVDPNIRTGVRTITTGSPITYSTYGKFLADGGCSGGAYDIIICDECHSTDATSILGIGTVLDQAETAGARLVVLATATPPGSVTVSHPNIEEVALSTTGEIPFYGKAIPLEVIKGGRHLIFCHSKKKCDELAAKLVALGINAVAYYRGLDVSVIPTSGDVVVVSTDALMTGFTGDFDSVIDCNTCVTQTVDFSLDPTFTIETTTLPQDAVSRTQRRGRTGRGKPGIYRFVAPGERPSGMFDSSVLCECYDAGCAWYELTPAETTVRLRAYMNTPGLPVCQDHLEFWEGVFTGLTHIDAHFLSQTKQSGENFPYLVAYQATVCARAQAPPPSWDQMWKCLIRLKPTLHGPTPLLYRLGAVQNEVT
Protocol: Analysis of the inhibition activation of flNS3 by the inhibitors was performed with the standard assay, allowing the inhibitor to preincubate with NS3 and NS4 for 15 min. prior to addition of substrate.

Compound	Ki
COc1ccc2c(O[C@@H]3C[C@H]4C(=O)N[C@]5(C(=O)O)C[C@H]5/C=C\CCCCC[C@H](NC(=O)OC5CCCC5)C(=O)N4C3)cc(-c3csc(NC(C)C)n3)nc2c1	0.12 nM
CCC(C)[C@H](NC(=O)[C@@H](NC(=O)CCC(=O)O)C1CCCCC1)C(=O)N[C@@H](CC1CCCCC1)C(=O)N[C@@H](CS)C(=O)O (stereo partly specified) [NS3 Protease Inhibitor, 1] (Suc-[Chg][Ile(3ξ)][Cha]C-OH)	330 nM
O=C(O)CCC(=O)N[C@H](C(=O)N[C@@H](CCC(=O)O)C(=O)N[C@@H](Cc1ccc2ccccc2c1)C(=O)N[C@@H](CS)C(=O)O)C1CCCCC1 [NS3 Protease Inhibitor, 2] (Suc-[Chg]E[2Nal]C-OH)	180 nM
O=C(O)CCC(=O)N[C@H](C(=O)N[C@@H](CCC(=O)O)C(=O)N[C@@H](CCC(=O)O)C(=O)N[C@@H](CS)C(=O)O)C(c1ccccc1)c1ccccc1 [NS3 Protease Inhibitor, 3] (Suc-[Dip]EEC-OH)	520 nM
O=C(O)CCC(=O)N[C@H](C(=O)N[C@@H](CCC(=O)O)C(=O)N[C@@H](CC1CCCCC1)C(=O)N[C@@H](CS)C(=O)O)C1CCCCC1 [NS3 Protease Inhibitor, 4] (Suc-[Chg]E[Cha]C-OH)	150 nM
CC(=O)N[C@H](C(=O)N[C@@H](CCC(=O)O)C(=O)N[C@@H](Cc1ccc2ccccc2c1)C(=O)N[C@@H](CS)C(=O)O)C1CCCCC1 [NS3 Protease Inhibitor, 5] (Ac-[Chg]E[2Nal]C-OH)	500 nM
COc1ccc2c(O[C@@H]3C[C@@H](C(=O)NC4(C(=O)O)CC4)N(C(=O)[C@@H](NC(=O)OC(C)(C)C)C(C)C)C3)cc(-c3ccccc3)nc2c1 [NS3 Protease Inhibitor, 6]	1100 nM
C=CC1C[C@]1(NC(=O)[C@@H](NC(=O)C(NC(=O)OC(C)(C)C)C(C)C)c1ccc(Oc2cc(-c3ccccc3)nc3cc(OC)ccc23)cc1)C(=O)NS(=O)(=O)c1ccccc1 (stereo partly specified) [NS3 Protease Inhibitor, 7]	290 nM
CCC[C@H](NC(=O)[C@@H]1C[C@@H](Oc2cc(-c3ccccc3)nc3cc(OC)ccc23)CN1C(=O)[C@@H](NC(=O)OC(C)(C)C)C(C)C)C(=O)NS(=O)(=O)c1ccccc1 [NS3 Protease Inhibitor, 8]	170 nM
C=CC1C[C@]1(NC(=O)[C@@H]1C[C@@H](Oc2cc(-c3ccccc3)nc3cc(OC)ccc23)CN1C(=O)[C@@H](NC(=O)OC(C)(C)C)C(C)C)C(=O)O (stereo partly specified) [NS3 Protease Inhibitor, 9]	15 nM
C=CC1C[C@]1(NC(=O)[C@@H]1C[C@@H](Oc2cc(-c3ccccc3)nc3cc(OC)ccc23)CN1C(=O)[C@@H](NC(=O)OC(C)(C)C)C(C)C)C(=O)NS(=O)(=O)c1ccccc1 (stereo partly specified) [NS3 Protease Inhibitor, 10]	0.22 nM
